In brackets after ≈: the same amount, converted by molar mass.

For data set [1], the target named is T1, Toll-like receptor 9 (Homo sapiens, UniProt Q9NR96).
T1 sequence (Q9NR96 whole entry): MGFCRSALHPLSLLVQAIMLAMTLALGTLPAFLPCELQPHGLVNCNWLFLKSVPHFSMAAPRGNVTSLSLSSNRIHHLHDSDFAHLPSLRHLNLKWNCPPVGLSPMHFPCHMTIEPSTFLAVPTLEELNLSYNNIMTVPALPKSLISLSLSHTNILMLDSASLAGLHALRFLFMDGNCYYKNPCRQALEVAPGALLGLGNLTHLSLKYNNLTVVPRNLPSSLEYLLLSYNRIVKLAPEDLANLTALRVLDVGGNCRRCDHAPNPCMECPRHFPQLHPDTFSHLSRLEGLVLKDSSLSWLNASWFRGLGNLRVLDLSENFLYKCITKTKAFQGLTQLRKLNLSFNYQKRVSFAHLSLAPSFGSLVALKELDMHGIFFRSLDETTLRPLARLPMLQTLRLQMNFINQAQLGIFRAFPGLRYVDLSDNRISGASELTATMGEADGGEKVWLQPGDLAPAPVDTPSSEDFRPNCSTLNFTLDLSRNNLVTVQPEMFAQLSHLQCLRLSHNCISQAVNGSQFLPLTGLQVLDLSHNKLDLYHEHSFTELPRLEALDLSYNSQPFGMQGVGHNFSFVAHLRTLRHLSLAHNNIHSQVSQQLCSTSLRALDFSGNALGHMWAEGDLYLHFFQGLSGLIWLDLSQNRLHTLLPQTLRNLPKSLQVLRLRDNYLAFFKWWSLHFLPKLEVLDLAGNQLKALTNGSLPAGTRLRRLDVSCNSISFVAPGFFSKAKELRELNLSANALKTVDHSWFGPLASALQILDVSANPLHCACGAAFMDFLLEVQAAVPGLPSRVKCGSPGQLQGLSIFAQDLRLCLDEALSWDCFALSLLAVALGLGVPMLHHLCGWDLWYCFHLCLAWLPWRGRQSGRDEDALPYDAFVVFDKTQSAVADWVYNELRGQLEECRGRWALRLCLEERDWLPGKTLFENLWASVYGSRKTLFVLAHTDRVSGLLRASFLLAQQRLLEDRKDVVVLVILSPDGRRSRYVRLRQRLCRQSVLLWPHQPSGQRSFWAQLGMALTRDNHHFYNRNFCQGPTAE

Data set [2] concerns the target T1, Toll-like receptor 9. Nature of the data set: Antagonist activity at human TLR9 expressed in HEK-blue hTLR9 cells assessed as inhibition of CpGB-induced NFkappaB activation preincubated with compound for 1 hrs followed by CpGB addition and measured next day by SEAP-based spectrophotometry assay. The class given is cell-based.
A short description of data set [3]: Apparent permeability across basolateral to apical side in human Caco-2 cells measured after 120 mins by LC-MS/MS analysis. (Caco-2 cells form a polarised layer with tight junctions and transporters.)
Data set [4] can be described thus: Stability in human plasma assessed as parent compound remaining at 1 uM measured after 2 hrs by LC-MS/MS analysis.
A further data set has as its target T2, Toll-like receptor 7 (Homo sapiens, UniProt Q9NYK1).
T2 sequence (Q9NYK1 whole entry): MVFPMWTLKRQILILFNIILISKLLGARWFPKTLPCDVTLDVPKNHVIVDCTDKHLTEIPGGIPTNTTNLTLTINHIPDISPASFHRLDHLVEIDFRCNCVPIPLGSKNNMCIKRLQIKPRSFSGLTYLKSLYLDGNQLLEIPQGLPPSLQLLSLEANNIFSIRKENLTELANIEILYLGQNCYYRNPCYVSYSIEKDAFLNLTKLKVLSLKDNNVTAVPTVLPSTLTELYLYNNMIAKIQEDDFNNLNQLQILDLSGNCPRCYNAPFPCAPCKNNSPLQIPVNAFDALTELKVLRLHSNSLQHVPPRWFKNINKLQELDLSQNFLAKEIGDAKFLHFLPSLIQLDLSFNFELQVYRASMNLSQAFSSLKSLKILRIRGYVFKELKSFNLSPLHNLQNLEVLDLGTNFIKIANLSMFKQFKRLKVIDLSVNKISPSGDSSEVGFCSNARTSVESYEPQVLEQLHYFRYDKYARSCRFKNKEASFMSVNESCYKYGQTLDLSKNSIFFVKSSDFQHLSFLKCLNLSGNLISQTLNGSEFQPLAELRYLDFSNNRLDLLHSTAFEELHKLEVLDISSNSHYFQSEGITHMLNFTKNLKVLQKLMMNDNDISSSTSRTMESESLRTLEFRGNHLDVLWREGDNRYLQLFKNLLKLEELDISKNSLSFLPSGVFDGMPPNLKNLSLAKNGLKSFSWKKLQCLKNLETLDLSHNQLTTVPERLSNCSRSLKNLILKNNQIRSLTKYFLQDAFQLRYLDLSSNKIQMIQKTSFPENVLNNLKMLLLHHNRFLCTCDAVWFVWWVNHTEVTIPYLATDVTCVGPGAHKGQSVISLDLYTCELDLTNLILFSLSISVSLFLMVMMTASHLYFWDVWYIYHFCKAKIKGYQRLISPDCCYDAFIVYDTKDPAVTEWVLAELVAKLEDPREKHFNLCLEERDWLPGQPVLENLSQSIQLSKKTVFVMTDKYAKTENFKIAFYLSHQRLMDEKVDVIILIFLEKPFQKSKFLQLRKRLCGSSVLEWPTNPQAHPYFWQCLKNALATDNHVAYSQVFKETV

The nature of a further data set: physchem. Particulars: buffer, pH 7.4.
A short description of data set [5]: Stability in mouse plasma assessed as parent compound remaining at 1 uM measured after 2 hrs by LC-MS/MS analysis.
Data set [6] can be described thus: Apparent permeability across apical to basolateral side in human Caco-2 cells measured after 120 mins by LC-MS/MS analysis.
The nature of data set [7]: Efflux ratio of apparent permeability across basolateral to apical side to apical to basolateral side in human Caco-2 cells measured after 120 mins by LC-MS/MS analysis.
The target in the next data set is T3, Toll-like receptor 8 (Homo sapiens, UniProt Q9NR97).
T3 sequence (Q9NR97 whole entry): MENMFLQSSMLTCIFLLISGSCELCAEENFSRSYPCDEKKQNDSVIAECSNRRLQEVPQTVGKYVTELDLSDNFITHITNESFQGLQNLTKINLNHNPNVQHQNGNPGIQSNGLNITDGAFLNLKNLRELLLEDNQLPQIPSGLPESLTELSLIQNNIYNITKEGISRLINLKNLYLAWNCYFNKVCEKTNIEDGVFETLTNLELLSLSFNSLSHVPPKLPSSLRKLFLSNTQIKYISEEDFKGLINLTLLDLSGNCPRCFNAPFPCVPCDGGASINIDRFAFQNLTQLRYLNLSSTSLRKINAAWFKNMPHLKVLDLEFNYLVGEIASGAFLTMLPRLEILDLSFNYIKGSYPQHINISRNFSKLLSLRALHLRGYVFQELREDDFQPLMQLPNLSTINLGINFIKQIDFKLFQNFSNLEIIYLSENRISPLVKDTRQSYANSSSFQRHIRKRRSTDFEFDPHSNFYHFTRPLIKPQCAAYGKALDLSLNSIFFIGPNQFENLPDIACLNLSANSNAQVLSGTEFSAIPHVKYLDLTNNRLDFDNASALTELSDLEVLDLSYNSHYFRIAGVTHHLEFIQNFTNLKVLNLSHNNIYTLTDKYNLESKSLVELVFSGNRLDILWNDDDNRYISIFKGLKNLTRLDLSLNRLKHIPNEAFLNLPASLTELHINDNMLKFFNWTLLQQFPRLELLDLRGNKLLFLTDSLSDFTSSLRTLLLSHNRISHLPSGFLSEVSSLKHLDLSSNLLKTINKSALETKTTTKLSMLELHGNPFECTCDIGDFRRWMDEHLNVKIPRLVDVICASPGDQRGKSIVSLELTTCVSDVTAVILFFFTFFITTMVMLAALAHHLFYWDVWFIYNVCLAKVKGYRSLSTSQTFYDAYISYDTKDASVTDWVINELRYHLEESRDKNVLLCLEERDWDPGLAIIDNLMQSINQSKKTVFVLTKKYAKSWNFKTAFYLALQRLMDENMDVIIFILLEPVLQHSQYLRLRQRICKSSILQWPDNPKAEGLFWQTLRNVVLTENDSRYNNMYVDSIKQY

As for `COc1ccc(-c2cn3ccc(N4CCN(C(C)C)CC4)cc3n2)c(OC)c1`, the IC50 (usually the concentration needed to halve the response being measured) against Toll-like receptor 9 [1] is 28 nM; at Toll-like receptor 9 [2] it was 40 nM.

`COc1ccc(-c2cn3ccc(N4CCN(C5CCCC5)CC4)cc3n2)c(OCCCN2CCOCC2)c1`: the Papp B→A (as a rule, how fast a substance crosses the layer from the basolateral side) at 2 h in data set [3] stood at 8.17 ×10⁻⁶ cm/s. Also, the amount remaining (usually the share of the starting amount still present when the sample was taken) at 2 h, 1 µM in data set [4] is 94.3%; in [5], 90.6%. Also, the figures for the IC50 against Toll-like receptor 7 and at Toll-like receptor 9 [2] were 478 nM and 28 nM, respectively. Besides, in the data set “physchem”, the solubility (kinetic) (as a rule, the concentration staying in solution when a stock, usually in DMSO, is diluted into the medium) at 24 h, 500 µM came to 2.6 µg/mL (≈ 5 µM). The Papp A→B – broadly, how fast a substance crosses the layer from the apical side – at 2 h in [6] amounted to 15.4 ×10⁻⁶ cm/s. Also, the efflux ratio (usually a quotient of directional permeabilities that is used to spot active efflux) at 2 h in [7] came to 0.5.

On to `COc1ccc(-c2cn3ccc(NCCCN4CCCC4)cc3n2)c(OC)c1`, for which the results for the IC50 against Toll-like receptor 8 and on Toll-like receptor 9 [2] were 17.2 µM and 19 nM, respectively.
